{"source": "patent US8906825B2", "about": "“Herbicidal compositions comprising 4-amino-3-chloro-5-fluoro-6-(4-chloro-2-fluoro-3-methoxyphenyl) pyridine-2-carboxylic acid or a derivative thereof and triazolopyrimidine sulfonamides” (Dow AgroSciences LLC, priority 2012, dated 2014)", "format_in_all_cases": "in vivo", "key": {"[1]": {"tested_on": "BRAPP (Brachiaria platyphylla (Griseb.) Nash, broadleaf signalgrass)", "assay": "Postemergence foliar-applied herbicidal mixtures, direct seeded rice, greenhouse (Example I)"}, "[2]": {"tested_on": "ISCRU (Ischaemum rugosum Salisb., saramollagrass)", "assay": "Postemergence foliar-applied herbicidal mixtures, direct seeded rice, greenhouse (Example I)"}, "[3]": {"tested_on": "LAMPU (Lamium purpureum (L.), purple deadnettle)", "assay": "Postemergence foliar-applied herbicidal mixtures, cereal crops, greenhouse (Example III)", "conditions": "Compound A Benzyl Ester 8.75 gai/ha, visual score 0 to 100 percent after 20-22 days", "experimental": "(§1) Seeds of the desired test plant species were planted in Sun Gro MetroMix® 306 planting mixture, which typically has a pH of 6.0 to 6.8 and an organic matter content of about 30 percent, in plastic pots with a surface area of 103.2 square centimeters (cm^2). […] The plants were grown for 7-36 days in a greenhouse with an approximate 14 hour photoperiod which was maintained at about 18° C. during the day and about 17° C. during the night. Nutrients and water were added on a regular basis and supplemental lighting was provided with overhead metal halide 1000-Watt lamps as necessary. The plants were employed for testing when they reached the second or third true leaf stage.\n(§2) Treatments consisted of the benzyl ester of 4-amino-3-chloro-5-fluoro-6-(4-chloro-2-fluoro-3-methoxy-phenyl)pyridine-2-carboxylic acid (Compound A), formulated as an SC, a second cereal herbicide alone and then both in combination.\n(§3) Other herbicidal components were applied on an active ingredient basis and included acetolactate synthase (ALS)-inhibiting herbicides (sulfonamide chemical class) florasulam formulated as Derby® and pyroxsulam formulated as PowerFlex®. A measured aliquot of benzyl ester of 4-amino-3-chloro-5-fluoro-6-(4-chloro-2-fluoro-3-methoxy-phenyl)pyridine-2-carboxylic acid (Compound A) was placed in 25 milliliter (mL) glass vials and diluted in a volume of 1.25% (v/v) AgriDex® crop oil concentrated to obtain a stock solution. Compound requirements are based upon a 12 mL application volume at a rate of 187 liters per hectare (L/ha). […] Formulated compounds were applied to the plant material with an overhead Mandel track sprayer equipped with an 8002E nozzle calibrated to deliver 187 L/ha over an application area of 0.503 square meters (m^2) at a spray height of 18 inches (46 cm) above average plant canopy. Control plants were sprayed in the same manner with the solvent blank.\n(§4) The treated plants and control plants were placed in a greenhouse as described above and watered by sub-irrigation to prevent wash-off of the test compounds. After 20-22 days, the condition of the test plants as compared with that of the control plants was determined visually and scored on a scale of 0 to 100 percent where 0 corresponds to no injury and 100 corresponds to complete kill.\n(§5) Colby's equation was used to determine the herbicidal effects expected from the mixtures (Colby, S. R. 1967. Calculation of the synergistic and antagonistic response of herbicide combinations. Weeds 15:20-22.).\n(§6) The following equation was used to calculate the expected activity of mixtures containing two active ingredients, A and B: Expected=A+B−(A×B/100)"}, "[4]": {"tested_on": "MATCH (Chamomilla chamomilla (L.) Rydb., scented mayweed)", "assay": "Postemergence foliar-applied herbicidal mixtures, cereal crops, greenhouse (Example III)", "conditions": "Compound A Benzyl Ester 5 gai/ha, visual score 0 to 100 percent after 20-22 days", "experimental": "as §1, §2, §3, §4, §5, §6"}, "[5]": {"tested_on": "VIOTR (Viola tricolor (L.), wild pansy)", "assay": "Postemergence foliar-applied herbicidal mixtures, cereal crops, greenhouse (Example III)", "conditions": "Compound A Benzyl Ester 5 gai/ha, visual score 0 to 100 percent after 20-22 days", "experimental": "as §1, §2, §3, §4, §5, §6"}, "[6]": {"tested_on": "VERPE (Veronica persica Poir., bird's-eye speedwell)", "assay": "Postemergence foliar-applied herbicidal mixtures, cereal crops, greenhouse (Example III)", "conditions": "visual score 0 to 100 percent after 20-22 days", "experimental": "as §1, §2, §3, §4, §5, §6"}, "[7]": {"tested_on": "SASKR (Salsola iberica (L.), Russian thistle)", "assay": "Postemergence foliar-applied herbicidal mixtures, cereal crops, greenhouse (Example III)", "conditions": "Compound A Benzyl Ester 5 gai/ha, visual score 0 to 100 percent after 20-22 days", "experimental": "as §1, §2, §3, §4, §5, §6"}, "[8]": {"tested_on": "CIRAR (Cirsium arvense (L.) Scop., Canada thistle)", "assay": "Postemergence foliar-applied herbicidal mixtures, cereal crops, greenhouse (Example III)", "experimental": "as §1, §2, §3, §4, §5, §6"}, "[9]": {"conditions": "Compound A Benzyl Ester 8 gae/ha"}, "[10]": {"conditions": "Compound A Benzyl Ester 16 gae/ha"}}}
{"smiles": "COc1cnc(OC)n2nc(NS(=O)(=O)c3c(OCC(F)F)cccc3C(F)(F)F)nc12", "note": "[Penoxsulam, 2-(2,2-difluoroethoxy)-N-(5,8-dimethoxy[1,2,4]triazolo[1,5-c]pyrimidin-2-yl)-6-(trifluoromethyl)benzenesulfonamide, reference compound]", "values": [{"measurement": "Visual Weed Control (%) - 21 DAA BRAPP Obs", "setting": "[1]; Penoxsulam 4.38 gai/ha, Table 2", "result": 0, "unit": "%"}, {"measurement": "Visual Weed Control (%) - 21 DAA BRAPP Obs", "setting": "[1]; Penoxsulam 4.38 gai/ha, Table 3", "result": 0, "unit": "%"}, {"measurement": "Visual Weed Control (%) - 21 DAA BRAPP Obs", "setting": "[1]; Penoxsulam 8.75 gai/ha, Table 2", "result": 20, "unit": "%"}, {"measurement": "Visual Weed Control (%) - 21 DAA BRAPP Obs", "setting": "[1]; Penoxsulam 8.75 gai/ha, Table 3", "result": 20, "unit": "%"}, {"measurement": "Visual Weed Control (%) - 21 DAA BRAPP Obs", "setting": "[1]; Penoxsulam 17.5 gai/ha, Table 3", "result": 40, "unit": "%"}, {"measurement": "Visual Weed Control (%) - 21 DAA ISCRU Obs", "setting": "[2]; Penoxsulam 10 gai/ha", "result": 0, "unit": "%"}, {"measurement": "Visual Weed Control (%) - 21 DAA ISCRU Obs", "setting": "[2]; Penoxsulam 20 gai/ha", "result": 0, "unit": "%"}]}
{"smiles": "COc1c(Cl)ccc(-c2nc(C(=O)OCc3ccccc3)c(Cl)c(N)c2F)c1F", "note": "[Compound A Benzyl Ester, benzyl ester of 4-amino-3-chloro-5-fluoro-6-(4-chloro-2-fluoro-3-methoxy-phenyl)pyridine-2-carboxylic acid]", "values": [{"measurement": "LAMPU Obs", "setting": "[3]", "result": 83, "unit": "%"}, {"measurement": "MATCH Obs", "setting": "[4]", "result": 13, "unit": "%"}, {"measurement": "VIOTR Obs", "setting": "[5]", "result": 13, "unit": "%"}, {"measurement": "VERPE Obs", "setting": "[6]; Compound A Benzyl Ester 5 gai/ha", "result": 37, "unit": "%"}, {"measurement": "VERPE Obs", "setting": "[6]; Compound A Benzyl Ester 8.75 gai/ha", "result": 50, "unit": "%"}, {"measurement": "SASKR Obs", "setting": "[7]", "result": 57, "unit": "%"}, {"measurement": "CIRAR Obs", "setting": "[8]; Compound A Benzyl Ester 5 gai/ha, visual score 0 to 100 percent after 20-22 days", "result": 40, "unit": "%"}, {"measurement": "CIRAR Obs", "setting": "[8]; Compound A Benzyl Ester 8.75 gai/ha, visual score after 20-22 days, Table 17", "result": 40, "unit": "%"}, {"measurement": "CIRAR Obs", "setting": "[8]; Compound A Benzyl Ester 8.75 gai/ha, visual score after 20-22 days, Table 18", "result": 40, "unit": "%"}, {"measurement": "Visual Weed Control (%) - 22 DAA BRAPP Obs", "setting": "[1]; [9]", "result": 60, "unit": "%"}, {"measurement": "Visual Weed Control (%) - 22 DAA BRAPP Obs", "setting": "[1]; [10]", "result": 60, "unit": "%"}, {"measurement": "Visual Weed Control (%) - 21 DAA BRAPP Obs", "setting": "[1]; Compound A Benzyl Ester 17.5 gae/ha", "result": 80, "unit": "%"}, {"measurement": "Visual Weed Control (%) - 22 DAA BRAPP Obs", "setting": "[1]; Compound A Benzyl Ester 32 gae/ha", "result": 90, "unit": "%"}, {"measurement": "Visual Weed Control (%) - 21 DAA ISCRU Obs", "setting": "[2]; [9]", "result": 20, "unit": "%"}, {"measurement": "Visual Weed Control (%) - 21 DAA ISCRU Obs", "setting": "[2]; [10]", "result": 0, "unit": "%"}]}
